The values below come from US20060128605A1, “Preventives/remedies for snore or respiratory disturbances during sleep” (AJINOMOTO CO. INC, priority 2003, published 2006).

The test system of test [1] is snoring of the test recipient during sleep. The experiment in a line: snoring evaluation by a family member after tablets taken before bedtime. Type of test: in vivo, human. The settings on record: Experiment 1. As to the method:
(§1) In addition, sleep apnea and arterial blood oxygen saturation (SpO2) were evaluated using a sleep tester LT-200 manufactured by FUKUDA DENSHI Co., Ltd. (Japan). […] The test recipient was completely free of regular medication, and had no habit of taking nutritional supplements or nutritional supports. […] The test recipient took an appropriate number (2-4) of the glycine tablets or the control tablets, and interviewed a family member the next morning as to the presence or absence of snoring and the level thereof, without informing the family member of the kind of the tablets and whether they took the tablets.
The presence or absence of snoring during sleep was evaluated the next morning by a family member into three levels of minus (−; snoring was not heard or like sleep breath), plus (+; medium level snoring), two plus (++; extremely noisy and severe snoring). The presence or absence of snoring when the glycine tablets and control tablets were taken before bedtime, and nothing was taken before bedtime was counted.

For test [2], the system named is sleep apnea and SpO2 decrease during sleep. The following applies: Experiment 3, glycine tablets (4 tablets) before bedtime. The protocol: as §1
The arterial blood oxygen saturation (SpO2) and air flow in the mouth-nose during sleep were measured using a sleep tester LT-200 manufactured by FUKUDA DENSHI Co., Ltd. The arterial blood oxygen saturation (SpO2) was measured using a sensor attached to the tip of the second finger of the left hand, and a decrease in the arterial blood oxygen saturation (SpO2) to not more than 93% which lasted for not less than 10 seconds was taken as SpO2 decrease. The number of SpO2 decrease per one day and per one hour and the minimum SpO2 of one day were determined. The air flow in the mouth-nose part was measured by a thermocapsule method, and a decrease in the flow in the mouth-nose part to not more than 50% which lasted for not less than 10 sec was defined as hypopnea. The occurrence of SpO2 decrease along with hypopnea was counted as apnea and the number of apnea per one day and per one hour was determined. Simultaneously, tracheal sounds during sleep were picked up through a mike set near laryngeal prominence.
The sleep apnea suppressing effect of glycine was evaluated. […] Tracheal sounds during sleep, which is considered to reflect the snoring sound, were simultaneously recorded.

In test [3] the test system is male adults having sleep apnea syndrome. The settings on record: glycine 3 g 1 hour before sleep. The protocol: For confirmation of the effect of glycine on respiratory disorders during sleep, a double blind crossover test was performed with 10 male adults having sleep apnea syndrome as evidenced by more than 5 of the following AHI (apnea hypopnea index per 1 hour). Glycine (3 g) was administered 1 hour before sleep and, as the placebo, maltose adjusted to an indistinguishable taste was used.
Sleep polygraph data such as electroencephalogram, electromyogram, arterial blood oxygen saturation, and the like during sleep were measured using the Alice system manufactured by Respironics Co., Ltd. (USA). The air flow of the mouth-nose part was measured, and hypopnea was defined to mean a state where a decrease to not more than 50% requires not less than 10 second to recover to not less than 60%. Furthermore, a decrease in the arterial blood oxygen saturation by not less than 3% associated with hypopnea was taken as apnea. The total of the incidents of apnea and hypopnea per 1 hour was taken as an apnea hypopnea index (AHI) and used as a severity index of respiratory disorder during sleep.

Test [4] relates to sleep apnea syndrome. The following applies: animal experiments using rats; cited from earlier work.
Setting [5] is: 2 glycine tablets (glycine 490 mg) before bedtime, 9 days of observation.
Where [6] appears, read: 4 glycine tablets (glycine 980 mg) before bedtime, 8 days of observation.
Where [7] appears, read: SpO2 not more than 93% for not less than 10 seconds.

On to `NCC(=O)O` [glycine], for which, in test [1] (setting [5]), the “snoring evaluation results ++, number of days (severe snoring)” value was 2 days; the “snoring evaluation results ++, percentage of total observation days” value was “(22%)”; the “snoring evaluation results +, number of days (medium level snoring)” value is reported as 3 days; the “snoring evaluation results +, percentage of total observation days” value is on record as “(33%)”. Also, in test [1] (setting [5]), the “snoring evaluation results −, number of days (snoring not heard or like sleep breath)” value is on record as 4 days and the “snoring evaluation results −, percentage of total observation days” value is “(44%)”. Besides, in test [1] (setting [6]), the “snoring evaluation results ++, number of days (severe snoring)” value came to 0 days; the “snoring evaluation results ++, percentage of total observation days” value is “(0% a))”; the “snoring evaluation results +, number of days (medium level snoring)” value was 2 days; the “snoring evaluation results +, percentage of total observation days” value is “(25%)”. Further, in test [1] (setting [6]), the “snoring evaluation results −, number of days (snoring not heard or like sleep breath)” value was found to be 6 days and the “snoring evaluation results −, percentage of total observation days” value is on record as “(75%)”. For the same molecule, in test [2], the “SpO2 lowest value during sleep” value is 88 ± 1%, the “apnea (times/day)” value is given as 11 ± 4 times/day and the “apnea (times/hr)” value was determined as 1.9 ± 0.9 times/hr. Also, in test [2] (setting [7]), the “SpO2 decrease (times/day)” value is listed as 14 ± 5 times/day and the “SpO2 decrease (times/hr)” value was 2.5 ± 1.2 times/hr. Also, the “average value of AHI, test recipients of 40 years old or over with BMI exceeding 28” value in test [3] (4 cases, placebo 18.9 (p=0.046)) is reported as 10.6. Besides, in test [3] (6 cases, entire sleep stage, placebo 17.2 (p=0.062)), the “average value of AHI, test recipients of 40 years old or over” value was 11.5. Also, the “respiratory disorder (hypopnea or apnea, AHI) in the early stage of sleep” value in test [3] (early stage of sleep (3 hours), FIG. 4 right graph) was “improved”. Also, the “average value of AHI, nonrem sleep stage (NREM)” value in test [3] (entire sleep stage, 10 male adults, placebo 11.3) is reported as 10.8. The “average value of AHI, entire period (Total) of rem and nonrem sleep stage” value in test [3] (entire sleep stage, 10 male adults, placebo 15.0) is recorded as 13.4. In test [3] (entire sleep stage, 10 male adults, placebo 33.5), the “average value of AHI, rem sleep stage (REM)” value was determined as 26.8.

`Nc1nc2ccc(OC(F)(F)F)cc2s1` [riluzole]: the “effectiveness for the treatment of sleep apnea syndrome” value in test [4] is on record as “has been confirmed”.
